{"source": "patent US11053204B2", "about": "“Pyrimidinyloxy benzene derivatives as herbicides” (FMC Corporation, priority 2015, dated 2021)", "format_in_all_cases": "in vivo", "key": {"[1]": {"system": "crabgrass, large (large crabgrass, Digitaria sanguinalis)", "experiment": "Test C postemergence, plant response rating", "conditions": "for Crabgrass, Large plant response rating: scale 0 to 100 (0 no effect, 100 complete control)", "procedure,_shortened": "(§1)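 Visual injury score, 0 = no effect, 100 = complete control, assigned against untreated controls after 13 to 15 d in the greenhouse. Compounds were applied in a surfactant-containing non-phytotoxic solvent mix, preemergence to seeded loam/sand or silt loam soil, or postemergence to 1- to 4-leaf plants (2 to 18 cm).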"}, "corn (Zea mays)": {"system": "corn (Zea mays)", "experiment": "Test C postemergence, plant response rating", "conditions": "for Corn plant response rating: scale 0 to 100 (0 no effect, 100 complete control)", "procedure,_shortened": "as §1"}, "[2]": {"system": "wheat (winter wheat, Triticum aestivum)", "experiment": "Test C postemergence, plant response rating", "procedure,_shortened": "as §1"}, "[3]": {"system": "galium (catchweed bedstraw, Galium aparine)", "experiment": "Test C postemergence, plant response rating", "conditions": "for Galium plant response rating: scale 0 to 100 (0 no effect, 100 complete control)", "procedure,_shortened": "as §1"}, "[4]": {"system": "nutsedge, yellow (yellow nutsedge, Cyperus esculentus)", "experiment": "Test C postemergence, plant response rating", "conditions": "for Nutsedge, Yellow plant response rating: scale 0 to 100 (0 no effect, 100 complete control)", "procedure,_shortened": "as §1"}, "kochia (Kochia scoparia) [5]": {"system": "kochia (Kochia scoparia)", "experiment": "Test C postemergence, plant response rating", "conditions": "for Kochia plant response rating: scale 0 to 100 (0 no effect, 100 complete control)", "procedure,_shortened": "as §1"}, "[6]": {"system": "oilseed rape (Brassica napus)", "experiment": "Test C postemergence, plant response rating", "conditions": "for Oilseed Rape plant response rating: scale 0 to 100 (0 no effect, 100 complete control)", "procedure,_shortened": "as §1"}, "[7]": {"system": "barnyardgrass (Echinochloa crus-galli)", "experiment": "Test C postemergence, plant response rating", "conditions": "for Plant response rating, Barnyardgrass: scale 0 to 100; for Barnyardgrass plant response rating: scale 0 to 100 (0 no effect, 100 complete control)", "procedure,_shortened": "as §1"}, "[8]": {"system": "morningglory (Ipomoea coccinea)", "experiment": "Test C postemergence, plant response rating", "conditions": "for Morningglory plant response rating: scale 0 to 100 (0 no effect, 100 complete control)", "procedure,_shortened": "as §1"}, "[9]": {"system": "blackgrass (Alopecurus myosuroides)", "experiment": "Test C postemergence, plant response rating", "conditions": "for Plant response rating, Blackgrass: scale 0 to 100; for Blackgrass plant response rating: scale 0 to 100 (0 no effect, 100 complete control)", "procedure,_shortened": "as §1"}, "[10]": {"system": "ragweed (common ragweed, Ambrosia elatior)", "experiment": "Test A preemergence, visual injury rating", "procedure,_shortened": "(§2)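 Visual injury scored 0–100 (100 = complete control) against untreated controls about 10 days after treatment in a greenhouse. Test chemicals, formulated with surfactant in non-phytotoxic solvent, were sprayed on soil preemergence or on 2-10 cm, one- to two-leaf plants postemergence.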"}, "[11]": {"system": "Italian ryegrass (Lolium multiflorum)", "experiment": "Test A preemergence, visual injury rating", "procedure,_shortened": "as §2"}, "kochia (Kochia scoparia) [12]": {"system": "kochia (Kochia scoparia)", "experiment": "Test A preemergence, visual injury rating", "procedure,_shortened": "as §2"}, "[13]": {"system": "pigweed (Amaranthus retroflexus)", "experiment": "Test A preemergence, visual injury rating", "procedure,_shortened": "as §2"}, "[14]": {"system": "giant foxtail (Setaria faberii)", "experiment": "Test A preemergence, visual injury rating", "procedure,_shortened": "as §2"}, "[15]": {"system": "barnyardgrass (Echinochloa crus-galli)", "experiment": "Test A preemergence, visual injury rating", "procedure,_shortened": "as §2"}, "[16]": {"system": "barnyardgrass (Echinochloa crus-galli)", "experiment": "Test B flooded paddy test, plant response rating", "conditions": "250 g ai/ha; Flood; scale of 0 to 100 where 0 is no effect and 100 is complete control; 13 to 15 days", "procedure,_shortened": "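Ratings were visual and made relative to untreated controls after 13 to 15 greenhouse days.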"}, "[17]": {"conditions": "31 g ai/ha, 0 to 100 scale, 0 no effect, 100 complete control"}, "[18]": {"conditions": "125 g ai/ha, 0 to 100 scale (0 no effect, 100 complete control)"}}, "data": [{"compound": "FC(F)(F)CCCCc1c(Cl)cccc1Oc1ncc(Cl)cn1", "note": "[Compound 137]", "values": [{"measurement": "Plant response rating, Crabgrass, Large", "setting": "[1]; 16 g ai/ha, scale of 0 to 100", "value": 10}, {"measurement": "Plant response rating, Crabgrass, Large", "setting": "[1]; 31 g ai/ha, scale 0 to 100", "value": 20}, {"measurement": "Crabgrass, Large plant response rating", "setting": "[1]; 62 g ai/ha", "value": 40}, {"measurement": "Crabgrass, Large plant response rating", "setting": "[1]; 125 g ai/ha", "value": 70}, {"measurement": "Plant response rating, Corn", "setting": "corn (Zea mays); 16 g ai/ha, scale of 0 to 100", "value": 10}, {"measurement": "Plant response rating, Corn", "setting": "corn (Zea mays); 31 g ai/ha, scale 0 to 100", "value": 15}, {"measurement": "Corn plant response rating", "setting": "corn (Zea mays); 62 g ai/ha", "value": 15}, {"measurement": "Corn plant response rating", "setting": "corn (Zea mays); 125 g ai/ha", "value": 25}, {"measurement": "Plant response rating, Wheat", "setting": "[2]; 16 g ai/ha, scale of 0 to 100", "value": 5}, {"measurement": "Plant response rating, Wheat", "setting": "[2]; 31 g ai/ha, scale 0 to 100", "value": 5}, {"measurement": "Wheat plant response rating", "setting": "[2]; 125 g ai/ha, scale 0 to 100 (0 no effect, 100 complete control)", "value": 20}, {"measurement": "Plant response rating, Galium", "setting": "[3]; 16 g ai/ha, scale of 0 to 100", "value": 55}, {"measurement": "Plant response rating, Galium", "setting": "[3]; 31 g ai/ha, scale 0 to 100", "value": 70}, {"measurement": "Galium plant response rating", "setting": "[3]; 62 g ai/ha", "value": 75}, {"measurement": "Galium plant response rating", "setting": "[3]; 125 g ai/ha", "value": 85}, {"measurement": "Plant response rating, Nutsedge, Yellow", "setting": "[4]; 16 g ai/ha, scale of 0 to 100", "value": 0}, {"measurement": "Plant response rating, Nutsedge, Yellow", "setting": "[4]; 31 g ai/ha, scale 0 to 100", "value": 0}, {"measurement": "Nutsedge, Yellow plant response rating", "setting": "[4]; 62 g ai/ha", "value": 10}, {"measurement": "Nutsedge, Yellow plant response rating", "setting": "[4]; 125 g ai/ha", "value": 5}, {"measurement": "Plant response rating, Kochia", "setting": "kochia (Kochia scoparia) [5]; 16 g ai/ha, scale of 0 to 100", "value": 85}, {"measurement": "Plant response rating, Kochia", "setting": "kochia (Kochia scoparia) [5]; 31 g ai/ha, scale 0 to 100", "value": 90}, {"measurement": "Kochia plant response rating", "setting": "kochia (Kochia scoparia) [5]; 62 g ai/ha", "value": 98}, {"measurement": "Kochia plant response rating", "setting": "kochia (Kochia scoparia) [5]; 125 g ai/ha", "value": 98}, {"measurement": "Plant response rating, Oilseed Rape", "setting": "[6]; 16 g ai/ha, scale of 0 to 100", "value": 90}, {"measurement": "Plant response rating, Oilseed Rape", "setting": "[6]; 31 g ai/ha, scale 0 to 100", "value": 95}, {"measurement": "Oilseed Rape plant response rating", "setting": "[6]; 62 g ai/ha", "value": 90}, {"measurement": "Oilseed Rape plant response rating", "setting": "[6]; 125 g ai/ha", "value": 100}, {"measurement": "Plant response rating, Barnyardgrass", "setting": "[7]; 16 g ai/ha", "value": 10}, {"measurement": "Plant response rating, Barnyardgrass", "setting": "[7]; 31 g ai/ha", "value": 10}, {"measurement": "Barnyardgrass plant response rating", "setting": "[7]; 62 g ai/ha", "value": 20}, {"measurement": "Barnyardgrass plant response rating", "setting": "[7]; 125 g ai/ha", "value": 40}, {"measurement": "Plant response rating, Morningglory", "setting": "[8]; 16 g ai/ha, scale of 0 to 100", "value": 10}, {"measurement": "Plant response rating, Morningglory", "setting": "[8]; 31 g ai/ha, scale 0 to 100", "value": 15}, {"measurement": "Morningglory plant response rating", "setting": "[8]; 62 g ai/ha", "value": 20}, {"measurement": "Morningglory plant response rating", "setting": "[8]; 125 g ai/ha", "value": 20}, {"measurement": "Plant response rating, Blackgrass", "setting": "[9]; 16 g ai/ha", "value": 5}, {"measurement": "Plant response rating, Blackgrass", "setting": "[9]; 31 g ai/ha", "value": 10}, {"measurement": "Blackgrass plant response rating", "setting": "[9]; 62 g ai/ha", "value": 15}, {"measurement": "Blackgrass plant response rating", "setting": "[9]; 125 g ai/ha", "value": 40}, {"measurement": "Plant response rating, Ragweed", "setting": "[10]; [17]", "value": 0}, {"measurement": "Plant response rating, Ragweed", "setting": "[10]; [18]", "value": 0}, {"measurement": "Plant response rating, Ryegrass, Italian", "setting": "[11]; [17]", "value": 0}, {"measurement": "Plant response rating, Ryegrass, Italian", "setting": "[11]; [18]", "value": 20}, {"measurement": "Plant response rating, Kochia", "setting": "kochia (Kochia scoparia) [12]; [17]", "value": 0}, {"measurement": "Plant response rating, Kochia", "setting": "kochia (Kochia scoparia) [12]; [18]", "value": 70}, {"measurement": "Plant response rating, Pigweed", "setting": "[13]; [17]", "value": 10}, {"measurement": "Plant response rating, Pigweed", "setting": "[13]; [18]", "value": 100}, {"measurement": "Plant response rating, Foxtail, Giant", "setting": "[14]; [17]", "value": 70}, {"measurement": "Plant response rating, Foxtail, Giant", "setting": "[14]; [18]", "value": 100}, {"measurement": "Plant response rating, Barnyardgrass", "setting": "[15]; [17]", "value": 0}, {"measurement": "Plant response rating, Barnyardgrass", "setting": "[15]; [18]", "value": 90}, {"measurement": "Plant response rating, Barnyardgrass", "setting": "[16]", "value": 75}]}]}
